Data reported in patent US10052340B2 (XIAMEN UNIVERSITY, priority 2012, dated 2018).

Key:
wild-type C57BL/6J mice = test: Mouse trial, wild-type mice fed with high-fat diet; conditions: 1.3 mg/kg i.p. daily, 14 days
Protocol: (§1) Wild-type C57BL/6J mice of 9-10 weeks old, and FXR gene deletion homozygous mice (FXR^−/−) and diabetes and obesity mouse model mice (KK-Ay) with the same background are used, fed with high-fat diet (Research Diets, D12492), with free access to water, in SPF grade animal room in experimental animal center, Xiamen University. […] Intraperitoneal injection is performed one time at 9 o'clock every morning, continued for 14 days, and the mice are measured for body weight and the food intake every two days. At the end of 14 days, the mice are provided with free access to water, and after being hungry for 6 h, the mouse body weights are measured, and the percentage of the final body weight relative to the initial body weight before the treatment of the injection trial indicates the change of mouse body weight. Then blood is sampled from the eye balls, and sera are obtained by separation. The components in serum are detected by the following kits respectively: sugar-oxidase method (Beijing Applygen); insulin (Crystal Chem. Inc., USA); total cholesterol and cholesterol in high and low density lipoprotein (Bioassay Systems, USA); triglyceride (Beijing Applygen and WAKO Chemicals Inc., Japan); free fatty acids (Bioassay Systems, USA); and aspartate aminotransferase and alanine aminotransferase (Biosino Bio-technology and Science Inc., Beijing, China). Mouse liver is taken, a part of which is fixed with paraformaldehyde, and embedded with paraffin, sectioned, and stained with hematoxylin and eosin, and a part of which is cryopreserved with liquid nitrogen for use in extracting RNA for measuring gene expression with fluorescence quantitative PCR.

[1] = tested on: FXR knockout mouse liver cells; test: LPS induced inflammatory gene expression in FXR knockout mouse liver cells; assay type: cell-based
Text: Ivermectin and LPS are used to treat wild-type and FXR knockout mouse liver cells.

[2] = tested on: other detected nuclear receptors; test: Reporter gene analysis, COS-7 cells cotransfected with other nuclear receptors (PPARs, RORs, GR, PR, RARα, RARβ, PXR, CAR); conditions: 0.5 μM, COS-7, FIG. 2
Protocol: DMEM medium containing 10% fetal bovine serum is used to perform the culture of monkey kidney epithelial cell COS-7 cells, and COS-7 cells are inoculated onto a 24-well plate on the day before transfection with an inoculation density of 5×10^4 cells/well, and transfected on the next day. The transfection is the transient transfection performed using Lipofectamine 2000 (Invitrogen). In the reporter gene analysis experiment, 200 ng of a nuclear receptor full-length expression plasmid or the expression plasmid of the mutant thereof, 200 ng of endogenous promoter reporter gene, and 30 ng of Renilla luciferase expression plasmid are used for cotransfection. 500 μl Opti-MEM is added to each well and cultured for 5 h, followed by adding a ligand medicament diluted in Opti-MEM to reach the corresponding concentration, and treating for 18 h. Various nuclear receptors and the corresponding reporter gene used are as follows: human FXR, EcRE-Luc; human PPARs (α, β, and γ), PPRE-Luc; human RORs (α, β and γ), Pcp2/RORE-Luc; human GR and PR, MMTV-Luc; human RARα and RARβ, and βRE-Luc.
A ligand can be tested for the affinity to FXR since the ligand can induce FXR to recruit coregulators after binding to FXR.

[3] = tested on: FXR gene deletion homozygous mice (FXR−/−); test: Mouse trial, FXR knockout mice fed with high-fat diet; assay type: in vivo; conditions: 1.3 mg/kg i.p. daily, 14 days
Protocol: as §1

CC[C@H](C)[C@H]1O[C@]2(CC[C@@H]1C)C[C@@H]1C[C@@H](C/C=C(\C)C(O[C@H]3C[C@H](OC)C(O[C@H]4C[C@H](OC)[C@@H](O)[C@H](C)O4)[C@H](C)O3)[C@@H](C)/C=C/C=C3\CO[C@@H]4[C@H](O)C(C)=CC(C(=O)O1)[C@]34O)O2 (stereo partly shown) [ivermectin]
activity of serum alanine aminotransferase (wild-type C57BL/6J mice; FIG. 11): does not affect the transaminase activity | activity of serum aspartate aminotransferase (wild-type C57BL/6J mice; FIG. 11): does not affect the transaminase activity | liver injury, liver section stained with hematoxylin and eosin (wild-type C57BL/6J mice; FIG. 12): produces no injury to liver cells | cholesterol level in high density lipoprotein (wild-type C57BL/6J mice; high-fat diet): significantly downregulated | cholesterol levels in low density and very low density lipoprotein (wild-type C57BL/6J mice; high-fat diet): downregulated | serum cholesterol level (wild-type C57BL/6J mice; high-fat diet): significantly decreases | serum glucose level (wild-type C57BL/6J mice; high-fat diet): significantly decreases | serum insulin level (wild-type C57BL/6J mice; high-fat diet): significantly decreases | serum triglyceride (Tg) level (wild-type C57BL/6J mice; high-fat diet): significantly decrease | expression of inflammatory factors induced by LPS [1]: no clear change | transcriptional activity of the other detected nuclear receptors [2]: does not produce any effect | serum cholesterol level [3]: not producing any significant change | serum glucose level [3]: not producing any significant change | serum insulin level [3]: does not produce any significant change | cholesterol in high density lipoprotein ([3]; FIG. 8): not affected | cholesterol in low density/very low density lipoprotein ([3]; FIG. 8): not affected
